What all share (type): in vivo, C57BL/6 mice
The test system of one experiment is TNF-α. Description: ELISA of TNF-α in supernatants of tongue homogenates. The following applies: vs infected mice treated with saline solution. (In an ELISA, binding on a coated surface is turned into a signal by an enzyme label.)
The next experiment has as its system IL-6. Briefly: ELISA of IL-6 in supernatants of tongue homogenates.
The test system of another experiment is IL-1β. Description: ELISA of IL-1β in supernatants of tongue homogenates. The following applies: vs infected mice treated with saline solution.

This note sets out measurements from patent US20220047656A1, “SACCHAROMYCES CEREVISIAE YEAST STRAIN FOR THE TREATMENT AND/OR PREVENTION OF OROPHARYNGEAL CANDIDIASIS” (LESAFFRE ET COMPAGNIE, priority 2018, published 2022).

For the compound `OC(Cn1cncn1)(Cn1cncn1)c1ccc(F)cc1F` [FLZ, fluconazole], the “production of TNF-α” value with TNF-α (3 days after infection) is “considerable inhibition”; in the experiment on TNF-α (6 days post-infection), “significant decrease”. Also, the “production of IL-6” value is “exception” in the experiment on IL-6 (3 days after infection, otherwise unchanged compared to the untreated mice) and “significant decrease” with IL-6 (6 days post-infection, vs infected mice treated with saline solution). For the same compound, the figures for the “production of IL-1β” value in the experiment with IL-1β (3 days after infection) and in the experiment on IL-1β (6 days post-infection) were “considerable inhibition” and “significant decrease”, respectively.
